Reference: US8404677B2, “Kinase inhibitors” (Genosco, priority 2009, dated 2013)
Where a name gives a salt, the structure may show the parent alone.

How the values were obtained:
[1] = biological target: T1, truncated human RET (Homo sapiens, UniProt P07949); assay: Inhibition of enzymatic kinase activity (LANCE Ulight); format: biochemical
T1 construct: truncated human FAK, RET, FLT3, JAK2, and LRRK2 (CARNA BIOSCIENCES™); purchased Carna Biosciences
T1 sequence (P07949 658-1114 limits assumed): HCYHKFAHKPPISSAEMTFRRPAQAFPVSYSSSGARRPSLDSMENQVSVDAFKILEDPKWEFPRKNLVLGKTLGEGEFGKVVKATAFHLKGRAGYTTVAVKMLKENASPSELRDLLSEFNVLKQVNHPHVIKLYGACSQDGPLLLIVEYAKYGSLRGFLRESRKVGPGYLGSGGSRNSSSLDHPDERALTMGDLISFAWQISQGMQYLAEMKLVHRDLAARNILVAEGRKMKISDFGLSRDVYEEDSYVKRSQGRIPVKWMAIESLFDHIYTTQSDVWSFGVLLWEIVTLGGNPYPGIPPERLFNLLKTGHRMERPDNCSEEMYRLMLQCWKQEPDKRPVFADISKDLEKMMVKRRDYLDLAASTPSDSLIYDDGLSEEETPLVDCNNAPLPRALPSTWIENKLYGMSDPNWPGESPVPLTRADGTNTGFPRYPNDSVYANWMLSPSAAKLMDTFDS
Description: (§1) Inhibition of Enzymatic SYK, ZAP70, PYK2, FAK, PIM1, RET, FLT3, JAK2 and LRRK2 Kinase Activity
(§2) Compounds of the invention were initially diluted to 10 mM in 100% DMSO (CALBIOCHEM™) for storage and made into kinase buffer solution to create a compound concentration ranging from 1 uM and 10 uM. Serial dilutions of compounds of the invention were dispensed into a 96-well plate (GREINER BIOSCIENCES™) at 6 μL each. Purified full-length human SYK, ZAP70, PIM1, PYK2 and truncated human FAK, RET, FLT3, JAK2, and LRRK2 (CARNA BIOSCIENCES™) were diluted in kinase buffer and added to the compound solutions and pre-incubated for 30 minutes at room temperature (1 hour for PYK2). […] The reaction mixture was incubated for 1 hour (2 hours for PYK2). Following the incubation, the stop solution made with EDTA, water, and Lance detection buffer ([…]™) was added (12 μL each) to stop phosphorylation.

[2] = biological target: T2, truncated human JAK2 (Homo sapiens, UniProt O60674); assay: as above; format: biochemical
T2 construct: truncated human FAK, RET, FLT3, JAK2, and LRRK2 (CARNA BIOSCIENCES™); purchased Carna Biosciences
T2 sequence (O60674 826-1132 limits assumed): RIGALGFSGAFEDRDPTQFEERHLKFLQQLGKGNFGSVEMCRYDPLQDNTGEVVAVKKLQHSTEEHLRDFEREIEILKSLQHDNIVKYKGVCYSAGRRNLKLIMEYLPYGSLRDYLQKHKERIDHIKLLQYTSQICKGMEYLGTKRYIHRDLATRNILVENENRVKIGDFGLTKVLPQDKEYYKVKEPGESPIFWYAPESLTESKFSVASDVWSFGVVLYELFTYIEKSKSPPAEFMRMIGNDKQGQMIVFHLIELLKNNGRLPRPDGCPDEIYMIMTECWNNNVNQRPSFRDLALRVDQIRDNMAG
Description: as §1, §2

[3] = biological target: T3, truncated human FLT3 (Homo sapiens, UniProt P36888); assay: as above; format: biochemical
T3 construct: truncated human FAK, RET, FLT3, JAK2, and LRRK2 (CARNA BIOSCIENCES™); purchased Carna Biosciences
T3 sequence (P36888 564-993 limits assumed): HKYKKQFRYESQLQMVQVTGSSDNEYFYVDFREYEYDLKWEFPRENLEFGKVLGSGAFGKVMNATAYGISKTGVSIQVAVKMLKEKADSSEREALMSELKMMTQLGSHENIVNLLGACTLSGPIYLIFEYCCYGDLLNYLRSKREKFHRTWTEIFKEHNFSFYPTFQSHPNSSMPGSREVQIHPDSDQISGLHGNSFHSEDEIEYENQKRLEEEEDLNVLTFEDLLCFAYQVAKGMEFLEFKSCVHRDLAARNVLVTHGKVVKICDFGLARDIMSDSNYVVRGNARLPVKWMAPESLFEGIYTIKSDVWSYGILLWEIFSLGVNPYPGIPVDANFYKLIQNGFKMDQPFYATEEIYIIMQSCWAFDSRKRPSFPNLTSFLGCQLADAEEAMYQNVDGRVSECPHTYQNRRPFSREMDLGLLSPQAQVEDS
Description: as §1, §2

[4] = system: MTC-TT; assay: Cell viability assay: RET inhibition; format: cell-based, human; conditions: for IC50: Homo sapiens, 48 h, two days after drug treatment; for inhibition level compared with Vandetinib and Sunitinib: RET induced cancer cell line
Description: In order to address RET dependent cell viability, the medullary thyroid carcinoma cell line, MTC-TT representing MEN2A was utilized to test compounds of the invention. MTC-TT were cultured at RPMI containing 15 bovine calf serum (Hyclon™ of Thermo™) and supplemented with 2 mM L-Glutamine. The cells were grown at a density of 5×10^4 cells/100 μL/well in duplicate in 96-well plates for one day and treated with different concentrations of test compound. Cell viability for MTC-TT two days after drug treatment was measured by Cell Titer 96 Aqueous One Solution Reagent (Promega™) according to the manufacture instructions. The IC50 value of test compound was calculated at Gradpad Prism 5 unless specified otherwise.

[5] = system: MV4-11 cells expressing human FLT3-ITD; assay: Cell viability assay: FLT3-ITD-positive cells; format: cell-based; conditions: for inhibition level compared with Vandetinib and Sunitinib: FLT3 ITD induced cancer cell line; for IC50: Homo sapiens, 72-hour incubation, read-out: MV-4-11 cell viability IC50
Description: Compounds of the invention were tested for cell viability effect on MV4-11 cells. For cell viability assay, MV4-11 cells expressing human FLT3-ITD were obtained from the American Type Culture Collection (ATCC, Manassas, Va.). This cell line was maintained with an Roswell Park Memorial Institute (RPMI) medium (HyClone™) containing 10 bovine calf serum (BCS; Hyclone™) supplemented iron. […] CellTiter Aqueous assay (Promega™) was also performed in parallel as an orthogonal assay. IC50 values were calculated using nonlinear regression and defined as the concentration needed for a 50 reduction in luminescence or absorbance treated versus untreated control cells (Prism™ Software).

[6] = system: HEL cells expressing human JAK2 V617F; assay: Cell viability assay: JAK2 inhibition; format: cell-based; conditions: Homo sapiens, 72-hour incubation
Description: Compounds of the invention were tested for cell viability effect on HEL cells. For cell viability assay, HEL cells expressing human JAK2 V617F were obtained from the American Type Culture Collection (ATCC, Manassas, Va.). This cell line was maintained with an Roswell Park Memorial Institute (RPMI) medium (HyClone™) containing 10 bovine calf serum (BCS; Hyclone™) supplemented iron. The HEL cells were seeded at 2×10^4 cells in 96 well culture plates, and serially diluted compound was then added. After a 72-hour incubation period at 37° C., Cell viability was measured using the ATPLite 1 step assay (Perkin-Elmer™) that is based on the quantification of ATP from viable cells. CellTiter Aqueous assay (Promega™) was also performed in parallel as an orthogonal assay. IC50 values were calculated using nonlinear regression and defined as the concentration needed for a 50 reduction in luminescence or absorbance treated versus untreated control cells (Prism™ Software).

[7] = biological target: T4, human ZAP70 (Homo sapiens, UniProt P43403); assay: Inhibition of enzymatic kinase activity (LANCE Ulight); format: biochemical; conditions: at 1 μM concentration; for inhibition at 1 µM: read-out: ZAP70 percentage inhibition
T4 construct: Purified full-length human SYK, ZAP70, PIM1, PYK2; purchased Carna Biosciences
T4 sequence (P43403 1-619): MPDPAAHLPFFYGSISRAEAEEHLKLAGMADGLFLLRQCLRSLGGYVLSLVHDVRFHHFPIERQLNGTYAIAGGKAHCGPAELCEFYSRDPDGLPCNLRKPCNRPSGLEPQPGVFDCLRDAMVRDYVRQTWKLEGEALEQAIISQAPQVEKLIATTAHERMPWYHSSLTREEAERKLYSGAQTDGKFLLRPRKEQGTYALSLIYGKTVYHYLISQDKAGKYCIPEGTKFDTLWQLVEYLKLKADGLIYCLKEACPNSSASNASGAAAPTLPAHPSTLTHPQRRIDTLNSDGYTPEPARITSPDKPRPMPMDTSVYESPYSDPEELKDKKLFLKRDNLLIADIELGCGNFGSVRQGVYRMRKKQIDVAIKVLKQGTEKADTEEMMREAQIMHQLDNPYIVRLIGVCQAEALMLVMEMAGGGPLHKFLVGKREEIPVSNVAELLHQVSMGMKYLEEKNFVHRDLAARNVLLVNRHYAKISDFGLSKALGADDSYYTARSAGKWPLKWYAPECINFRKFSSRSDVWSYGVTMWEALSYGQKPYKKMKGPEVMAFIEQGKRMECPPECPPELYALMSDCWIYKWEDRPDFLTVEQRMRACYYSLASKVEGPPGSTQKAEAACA
Description: as §1, §2

[8] = biological target: T5, truncated human FAK (Homo sapiens, UniProt Q05397); assay: as above; format: biochemical; conditions: at 1 μM concentration; for inhibition at 1 µM: read-out: FAK percentage inhibition
T5 construct: truncated human FAK, RET, FLT3, JAK2, and LRRK2 (CARNA BIOSCIENCES™); purchased Carna Biosciences
T5 sequence (Q05397 376-1052 limits assumed): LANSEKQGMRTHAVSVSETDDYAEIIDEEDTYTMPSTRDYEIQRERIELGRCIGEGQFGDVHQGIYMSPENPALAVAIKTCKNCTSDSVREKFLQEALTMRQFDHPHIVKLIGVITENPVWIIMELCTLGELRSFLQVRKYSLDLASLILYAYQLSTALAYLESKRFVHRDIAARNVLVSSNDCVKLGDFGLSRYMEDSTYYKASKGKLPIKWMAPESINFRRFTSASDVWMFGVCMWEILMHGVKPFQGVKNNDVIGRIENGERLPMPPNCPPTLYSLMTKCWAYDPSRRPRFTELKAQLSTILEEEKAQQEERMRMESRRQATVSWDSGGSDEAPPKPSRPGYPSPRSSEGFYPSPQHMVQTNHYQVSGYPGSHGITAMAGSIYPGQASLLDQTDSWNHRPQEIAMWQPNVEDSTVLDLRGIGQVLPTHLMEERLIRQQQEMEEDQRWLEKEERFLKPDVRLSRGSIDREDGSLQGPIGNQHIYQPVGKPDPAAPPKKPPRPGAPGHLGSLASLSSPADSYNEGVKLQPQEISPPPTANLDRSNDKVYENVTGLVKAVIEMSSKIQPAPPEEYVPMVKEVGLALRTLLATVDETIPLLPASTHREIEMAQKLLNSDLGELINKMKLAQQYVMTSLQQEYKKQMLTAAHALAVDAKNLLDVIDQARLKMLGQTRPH
Description: as §1, §2

[9] = biological target: T6, human PIM1 (Homo sapiens, UniProt P11309); assay: as above; format: biochemical; conditions: at 1 μM concentration; for inhibition at 1 µM: read-out: PIM1 percentage inhibition
T6 construct: Purified full-length human SYK, ZAP70, PIM1, PYK2; purchased Carna Biosciences
T6 sequence (P11309 whole entry): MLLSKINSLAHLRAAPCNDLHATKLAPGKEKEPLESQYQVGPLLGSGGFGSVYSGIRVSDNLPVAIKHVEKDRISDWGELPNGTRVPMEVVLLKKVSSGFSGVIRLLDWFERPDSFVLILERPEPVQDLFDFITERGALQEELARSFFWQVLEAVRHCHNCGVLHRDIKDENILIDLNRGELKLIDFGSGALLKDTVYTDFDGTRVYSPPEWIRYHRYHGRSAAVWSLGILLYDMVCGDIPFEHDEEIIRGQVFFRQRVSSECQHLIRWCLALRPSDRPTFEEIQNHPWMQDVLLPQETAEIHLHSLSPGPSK
Description: as §1
as §2, with “phosphorylation. […] Substrate phosphorylation was a function of the 665 nm emission measured following the addition of the detection solution and 50 minutes of incubation.” for “phosphorylation.”

[10] = biological target: SYK (Homo sapiens, UniProt P43405); assay: as above; format: biochemical; design: Purified full-length human SYK, ZAP70, PIM1, PYK2; purchased Carna Biosciences; conditions: at 1 μM concentration; for inhibition at 1 µM: read-out: SYK percentage inhibition
Description: as §1, §2

[11] = biological target: PYK2 (Homo sapiens, UniProt Q14289); assay: as above; format: biochemical; design: Purified full-length human SYK, ZAP70, PIM1, PYK2; purchased Carna Biosciences; conditions: at 1 μM concentration; for inhibition at 1 µM: read-out: PYK2 percentage inhibition
Sequence of PYK2 (Q14289 whole entry): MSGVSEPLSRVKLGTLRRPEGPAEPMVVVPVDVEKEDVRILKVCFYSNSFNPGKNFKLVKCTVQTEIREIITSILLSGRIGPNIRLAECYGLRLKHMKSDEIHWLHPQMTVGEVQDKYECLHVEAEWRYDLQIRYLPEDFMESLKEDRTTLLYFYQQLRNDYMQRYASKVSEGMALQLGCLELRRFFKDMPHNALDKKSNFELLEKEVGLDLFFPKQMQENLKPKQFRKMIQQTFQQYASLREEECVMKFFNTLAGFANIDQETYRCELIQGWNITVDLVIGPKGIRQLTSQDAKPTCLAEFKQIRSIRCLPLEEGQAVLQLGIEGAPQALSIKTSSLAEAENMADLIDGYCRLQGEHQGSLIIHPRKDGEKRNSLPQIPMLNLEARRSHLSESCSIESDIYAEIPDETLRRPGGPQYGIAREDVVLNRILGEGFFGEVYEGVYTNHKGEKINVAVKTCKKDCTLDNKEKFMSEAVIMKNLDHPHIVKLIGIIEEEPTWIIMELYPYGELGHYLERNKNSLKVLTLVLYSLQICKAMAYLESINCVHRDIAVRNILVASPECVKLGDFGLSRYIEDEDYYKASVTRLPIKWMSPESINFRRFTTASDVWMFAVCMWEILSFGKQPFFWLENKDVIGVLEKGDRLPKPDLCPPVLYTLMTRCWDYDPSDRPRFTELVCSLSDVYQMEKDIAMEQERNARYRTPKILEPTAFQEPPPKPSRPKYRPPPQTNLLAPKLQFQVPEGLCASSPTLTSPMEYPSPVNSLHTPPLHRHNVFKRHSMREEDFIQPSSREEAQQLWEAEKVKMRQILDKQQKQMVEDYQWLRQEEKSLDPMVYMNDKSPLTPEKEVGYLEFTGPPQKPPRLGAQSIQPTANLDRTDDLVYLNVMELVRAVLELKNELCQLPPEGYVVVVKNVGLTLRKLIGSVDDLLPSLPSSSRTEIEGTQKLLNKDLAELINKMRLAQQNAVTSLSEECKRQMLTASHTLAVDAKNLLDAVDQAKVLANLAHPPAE
Description: as §1, §2

| Molecule | IC50 ([5]; MV4-11) | inhibition at 1 µM [7] | inhibition at 1 µM [8] | inhibition at 1 µM [9] | inhibition at 1 µM [10] | inhibition at 1 µM [11] | IC50 [4] | other results |
| --- | --- | --- | --- | --- | --- | --- | --- | --- |
| CNC(=O)c1cc(Oc2ccc(NC(=O)Nc3ccc(Cl)c(C(F)(F)F)c3)cc2)ccn1 [Sorafenib, reference compound] |  |  |  |  |  |  |  | IC50 [6]: > 1000 nM |
| CCN(CC)CCNC(=O)c1c(C)[nH]c(/C=C2\C(=O)Nc3ccc(F)cc32)c1C [Sunitinib, reference compound] | 3.8 nM |  |  |  |  |  | 117 nM |  |
| (2-((1R,2S)-2-aminocyclohexylamino)-4-(3-(trifluoromethyl)phenylamino)pyrido[4,3-d]pyrimidin-5(6H)-one with (2-((1S,2R)-2-aminocyclohexylamino)-4-(3-(trifluoromethyl)phenylamino)pyrido[4,3-d]pyrimidin-5(6H)-one [Compound 101] |  |  |  |  |  |  |  | ZAP70 percentage inhibition [7]: 45%; FAK percentage inhibition [8]: 77%; PIM1 percentage inhibition [9]: 61%; SYK percentage inhibition [10]: 90%; PYK2 percentage inhibition [11]: 85% |
| N[C@@H]1CCN(c2nc(Nc3cccc(C(F)(F)F)c3)c3c(=O)[nH]ccc3n2)C1 [Compound 7, (R)-2-(3-aminopyrrolidin-1-yl)-4-(3-(trifluoromethyl)phenylamino)pyrido[4,3-d]pyrimidin-5(6H)-one hydrochloride] |  | 42% | 83.5% | 51.4% | 92.6% | 84.9% |  |  |
| CS(=O)(=O)c1ccc(Nc2nc(N3CCC(O)CC3)nc3cc[nH]c(=O)c23)cc1 [Compound 126, 2-(4-hydroxypiperidin-1-yl)-4(4-(methylsulfonyl)phenylamino)pyrido[4,3d]pyrimidin-5(6H)-one] |  | 49.3% | 80.8% | 12.7% | 95.1% | 39.5% |  |  |

More lines, main results first:

| IC50 ([5]; MV4-11) | inhibition at 1 µM [7] | inhibition at 1 µM [8] | inhibition at 1 µM [9] | inhibition at 1 µM [10] | inhibition at 1 µM [11] | Molecule | IC50 [4] | other results |
| --- | --- | --- | --- | --- | --- | --- | --- | --- |
| 0.1 nM |  |  |  |  |  | Cl.O=c1[nH]ccc2nc(N[C@H]3CCNC3)nc(Nc3ccc(N4CCOCC4)cc3)c12 [Compound 136, (S)-4-(4-morpholinophenylamino)-2-(pyrrolidin-3-ylamino)pyrido[4,3-d]pyrimidin-5(6H)-one hydrochloride] | 33 nM | IC50 [1]: 1.3 nM; IC50 [2]: 3.9 nM; IC50 [3]: 0.1 nM; inhibition level compared with Vandetinib and Sunitinib [4]: inhibition level greater than those exhibited by Vandetinib and Sunitinib; inhibition level compared with Vandetinib and Sunitinib [5]: inhibition level greater than those exhibited by Vandetinib and Sunitinib |
| 0.1 nM |  |  |  |  |  | Cl.O=c1[nH]ccc2nc(N[C@H]3CCNC3)nc(Nc3ccc(C(F)(F)F)cc3)c12 [Compound 8, (S)-2-(pyrrolidin-3-ylamino)-4-(4-(trifluoromethyl)phenylamino)pyrido[4,3-d]pyrimidin-5(6H)-one hydrochloride] | 14 nM | IC50 [1]: 2.6 nM; IC50 [2]: 12.7 nM; IC50 [3]: 0.2 nM; times higher inhibition in IC50 than Vandetanib and Sunitinib ([4]; MTC-TT): 6 time; inhibition level compared with Vandetinib and Sunitinib [4]: inhibition level greater than those exhibited by Vandetinib and Sunitinib; inhibition level compared with Vandetinib and Sunitinib [5]: inhibition level greater than those exhibited by Vandetinib and Sunitinib; times higher inhibition in IC50 than Sunitinib and PKC-412 ([5]; MV4-11): 10-30 time |
|  | 6.2% | 4.9% | 7.3% | 3% | 1% | Cn1ccc2nc(N3CCC(O)CC3)nc(Nc3cccc(C(F)(F)F)c3)c2c1=O [Compound 168, 2-(4-hydroxypiperidine-1-yl)-6-methyl-4-(3-(trifluoromethyl)phenylamino)pyrido[4,3-d]pyrimidin-5(6H)-one] |  |  |
